The subject of experiment [1] is Male Swiss mice. The experiment in a line: Formalin test (analgesic activity, licking time of the injected paw). Type of experiment: in vivo. As to conditions: p.o. 10 min before 5% formalin injection into hind paw, second phase (15-60 min), % inhibition of licking vs. control, Litchfield and Wilcoxon; for ED50: Mus musculus, po, read-out: FORMALIN TEST (ED50 p.o) Phase II. As to the method:
The pharmacological activity of the products of the present invention was tested in vivo in formalin test model, which is known to evaluate neuropathic and inflammatory pain in animals.
The formalin test was introduced as a model of tonic pain in 1977, and has since […] been used extensively in rats and mice. In rats, formalin generates an initial phase of activity (5-10 min, phase 1), a quiescent interphase (5-10 min), and a second phase of activity (lasting 60-90 min, phase 2), and this is seen with spontaneous behaviors, firing of afferent neurons, and activity in dorsal horn neurons. Both active phases involve ongoing peripheral afferent neural activity; inflammation contributes to phase 2 activity and the interphase results from active inhibition. Responses are concentration dependent between 0.25% and 2.5%, plateau from 2.5% to 5%, and can decline at higher concentrations. Formalin also results in tissue edema, and this is longer lasting. Responses to formalin up to 2.5% are predominantly neurogenic, while at higher concentrations, responses involve a further prominent inflammatory component. Within the spinal cord, formalin increases c-Fos expression in neurons and causes activation of microglia, and these may contribute more prominently to longer term changes. Acute responses (to 90 min) may represent a model of ongoing acute pain involving inflammation and aspects of central sensitization, while longer term responses (days, weeks) may represent a model of changes involved in persistent pathological pain.
Male Swiss mice (weight range, 16-20 g) were used (n=6-8 per group).Mice were fasted for 3 hours before the administration of oral treatment with free access to drinking water before the experiment. All experiments were conducted in accordance with the “Guidelines on Ethical Standards for Investigation of Experimental Pain in Animals
Mice were housed in clear plastic chambers with a mirror placed at a 45° angle to allow an unobstructed view of the paws. Mice were injected into the dorsal surface of hind paw with 20 μl of dilute formalin (5%) using a 30-gauge needle. Treatments were administrated p.o. 10 min before formalin injection.
Nociceptive behavior was quantified measuring time spent licking the injected paw after injection.
For evaluation of antinociceptive effect of a potential drug for neuropathic pain, the quantization of the second phase of the test (15-60 min) is the most important. Controls animals were observed under identical conditions without receiving treatments before formalin injection.
For each dose of compound given the % inhibition of licking vs. control animals were calculated. ED50 was calculated using the method of Litchfield and Wilcoxon. At the end of the experiments, mice were humanely euthanized with a dose of sodium pentobarbital (150 mg/kg i.p.).

Experiment [2] relates to Male Swiss mice. The experiment in a line: Hot plate method (acute pain model). The class given is in vivo. As to conditions: Mus musculus, oral, 30 minutes before test, hot surface 55° C, dose producing 50% MPE, cutoff 60 seconds, read-out: HOT PLATE (ED50, p.o). How it is done:
The activity of some of the products was also tested using an acute pain model by using the hot plate method.
The method that was used is described by Eddy N. B. and Leimbach D. (J. Pharm. Exp. Ther. 107: 385-393, 1953). The analgesic effect of the products was evaluated analyzing the behavior of the animals on a hot surface at 55° C±1° C.
Male Swiss mice weighing 20-25 g were used. The compounds being tested were administered orally 30 minutes before starting the test.
The process consisted of placing the animals on the plate and keeping them in a Plexiglas cylinder 25 cm high and 21 cm […]. The time the animals took to jump off the hot surface was determined The animals were selected before starting the test so that those that took longer than 10 seconds to jump off (predrug latency) were not included in the group that would receive treatment.
A predrug latency time was determined before product treatment in all animals and 30 minutes after administering the product being tested, the test was repeated and the maximum time it took the animals to jump off (test latency) was again recorded.
The results are expressed in the table as ED50 that was calculated from % MPE (Maximum Posible Effect) determined as follows:
% MPE=100×(test latency−predrug latency)/(cutoff time−predrug latency)
The % MPE was measured for each compound at different dose levels (μmol/kg) and the ED50 values (dose of compound that produced 50% MPE) were obtained using a computer assisted linear regression analysis of the dose-response curve, including an analysis of variance test for linearity.

Counter-ions that a name gives are not always drawn.

For the molecule `COc1cccc([C@@]2(O)CCCC[C@@H]2CN(C)C)c1` (relative stereo) [Tramadol hydrochloride, (1R,2R)-rel-2-[(dimethylamino)methyl]-1-(3-methoxyphenyl) cyclohexanol, reference compound], the ED50 was 139 µmol/kg in experiment [1] and 66 µmol/kg in experiment [2]. Consider `COc1cccc([C@@]2(O)CCCC[C@@H]2CN(C)C)c1` (single isomer, unassigned) [Tramadol Enantiomer R,R, reference compound], for which, in experiment [1], the “FORMALIN TEST (ED50 p.o) Phase II” value was found to be 126.6 µmol/kg. For `COc1cccc([C@]2(O)CCCC[C@H]2CN(C)C)c1` (single isomer, unassigned) [Tramadol Enantiomer S,S, reference compound], in experiment [1], the “FORMALIN TEST (ED50 p.o) Phase II” value came out at 233.3 µmol/kg. Turning to `CN(C)CC1CCCCC1(O)c1cccc(OC(=O)CC2(CNC(=O)OC(C)(C)C)CCCCC2)c1` (centres unmarked) [Product of example 1, (1R2R, 1S25)-3-(2-((dimethylamino)methyl)-1-hydroxycyclohexyl)phenyl 2-(1-((tert-butoxycarbonylamino)methyl)cyclohexyl)acetate], the ED50 in experiment [1] was 39.9 µmol/kg; in experiment [2], 35.7 µmol/kg. Turning to `CN(C)C[C@H]1CCCC[C@]1(O)c1cccc(OC(=O)CC2(CNC(=O)OC(C)(C)C)CCCCC2)c1` [Product of example 2], the ED50 was 17.2 µmol/kg in experiment [1] and 8 µmol/kg in experiment [2]. For the molecule `CN(C)C[C@@H]1CCCC[C@@]1(O)c1cccc(OC(=O)CC2(CNC(=O)OC(C)(C)C)CCCCC2)c1` [Product of example 3], the ED50 in experiment [1] was 65.9 µmol/kg. `CCOC(=O)NCC1(CC(=O)Oc2cccc(C3(O)CCCCC3CN(C)C)c2)CCCCC1` (centres unmarked) [Product of example 4, (1R2R, 1S2S) 3-(2-((dimethylamino)methyl)-1-hydroxycyclohexyl)phenyl 2-(1-((ethoxycarbonylamino)methyl)cyclohexyl)acetate]: the ED50 in experiment [1] came out at 19 µmol/kg; in experiment [2], 26.3 µmol/kg. As to `CCOC(=O)NCC1(CC(=O)Oc2cccc([C@@]3(O)CCCC[C@@H]3CN(C)C)c2)CCCCC1` [Product of example 5, 3-((1R,2R)-2-((dimethylamino)methyl)-1-hydroxycyclohexyl)phenyl 2-(1-((ethoxycarbonylamino)methyl)cyclohexyl)acetate], in experiment [1], the ED50 was 6 µmol/kg.

Regarding `CCOC(=O)NCC1(CC(=O)Oc2cccc([C@]3(O)CCCC[C@H]3CN(C)C)c2)CCCCC1` [Product of example 13, 3-((1S,2S)-2-((dimethylamino)methyl)-1-hydroxycyclohexyl)phenyl 2-(1-((ethoxycarbonylamino)methyl)cyclohexyl)acetate], the ED50 in experiment [1] was 28 µmol/kg. Consider `COC(=O)NCC1(CC(=O)Oc2cccc(C3(O)CCCCC3CN(C)C)c2)CCCCC1` (centres unmarked) [Product of example 14, (1R2R, 1S2S) 3-(2-((dimethylamino)methyl)-1-hydroxycyclohexyl)phenyl 2-(1-((methoxycarbonylamino)methyl)cyclohexyl)acetate], for which, in experiment [1], the ED50 came to 44.5 µmol/kg. As for `CC(C)OC(=O)NCC1(CC(=O)Oc2cccc(C3(O)CCCCC3CN(C)C)c2)CCCCC1` (centres unmarked) [Product of example 15, (1R2R, 1S2S) 3-(2-((dimethylamino)methyl)-1-hydroxycyclohexyl)phenyl 2-(1-((isopropoxycarbonylamino)methyl)cyclohexyl)acetate], in experiment [1], the ED50 was found to be 57.9 µmol/kg. On to `CN(C)CC1CCCCC1(O)c1cccc(OC(=O)CC2(CNC(=O)OCc3ccccc3)CCCCC2)c1` (centres unmarked) [Product of example 16, (1R2R, 1S2S)3(2-((dimethylamino)methyl)-1-hydroxycyclohexyl)phenyl 2-(1-((benzyloxycarbonylamino)methyl)cyclohexyl)acetate], for which the ED50 in experiment [1] was determined as 37.9 µmol/kg. `CN(C)CC1CCCCC1(O)c1cccc(OC(=O)CC2(CNC(=O)Oc3ccccc3)CCCCC2)c1` (centres unmarked) [Product of example 17, (1R2R, 1S2S)3(2-((dimethylamino)methyl)-1-hydroxycyclohexyl)phenyl 2-(1-((phenoxycarbonylamino)methyl)cyclohexyl)acetate]: the ED50 in experiment [1] was found to be 39 µmol/kg. Take `CC(=O)NCC1(CC(=O)Oc2cccc(C3(O)CCCCC3CN(C)C)c2)CCCCC1` (centres unmarked) [Product of example 18, (1R2R, 1S2S)3(2-((dimethylamino)methyl)-1-hydroxycyclohexyl)phenyl 2-(1-(acetamidomethyl)cyclohexyl)acetate]: in experiment [1], the ED50 was found to be 30.4 µmol/kg. In the case of `CCOC(=O)NCC1(CC(=O)Oc2cccc(C3=C(CN(C)C)CCCC3)c2)CCCCC1` [Product of example 19, 3-(2-((dimethylamino)methyl)cyclohex-1-enyl)phenyl 2-(1-((ethoxycarbonylamino)methyl)cyclohexyl)acetate], the ED50 in experiment [1] is 62.7 µmol/kg. For `CCOC(=O)NCC1(CC(=O)Oc2cccc(C3=CCCCC3CN(C)C)c2)CCCCC1` (centres unmarked) [Product of example 20, 3-(6-((dimethylamino)methyl)cyclohex-1-enyl)phenyl 2-(1-((ethoxycarbonylamino)methyl)cyclohexyl)acetate], the 50% effective dose (ED50) in experiment [1] was 59.7 µmol/kg. Still for that read-out and setting: the value for `CCOC(=O)NCC1(CC(=O)Oc2cccc([C@@H](CC)[C@@H](C)CN(C)C)c2)CCCCC1` [Product of example 22, 3-((2R,3S)-1-(dimethylamino)-2-methylpentan-3-yl)phenyl 2-(1-((ethoxycarbonylamino)methyl)cyclohexyl)acetate] was 30.4 µmol/kg. Consider `CCOC(=O)NC[C@H](CC(=O)Oc1cccc(C2(O)CCCCC2CN(C)C)c1)CC(C)C` (stereo partly drawn) [Product of example 23, (1R2R, 1S2S)-(S)-3-(2-((dimethylamino)methyl)-1-hydroxycyclohexyl)phenyl 3-((ethoxycarbonylamino)methyl)-5-methylhexanoate], for which the ED50 in experiment [1] was determined as 75.2 µmol/kg. On the same count and under the same terms, for `CCOC(=O)NC[C@H](CC(=O)Oc1cccc([C@@]2(O)CCCC[C@@H]2CN(C)C)c1)CC(C)C` [Product of example 24, (S)-3-((1R,2R)-2-((dimethylamino)methyl)-1-hydroxycyclohexyl)phenyl 3-((ethoxycarbonylamino)methyl)-5-methylhexanoate] the value was 56.9 µmol/kg.

Source of the values: patent publication US20130046012A1, “NEW COMPOUNDS, SYNTHESIS AND USE THEREOF IN THE TREATMENT OF PAIN” (LACER, S.A., priority 2010, published 2013).
